Test results taken from the supplement of paper PMC10307832.

Columns and labels:
Assay in all cases: relative viability (nuclei count vs DMSO), 5 days (fraction); higher = more cells survive
[1] = compound: CCC1=CN=CN=C1N2CCN(CC2)CC3=NC4=C(N3)C=C(C=C4)C(F)(F)F + C[C@@H](Oc1cc(-c2cnn(C3CCNCC3)c2)cnc1N)c1c(Cl)ccc(F)c1Cl [Crizotinib] (partner 1 µM)
Outline: (§1)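 Each reported value is a median over duplicate plates. It expresses relative viability: treated-well nuclei count divided by vehicle-well nuclei count. Lung cancer cell lines in 1536-well plates were dosed by pin tool a day after seeding, alone with one drug or with a fixed anchor-drug dose plus five library-drug doses (not always all listed) in √10 steps, and nuclei were counted after 5 days.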

[2] = compound: CCC1=CN=CN=C1N2CCN(CC2)CC3=NC4=C(N3)C=C(C=C4)C(F)(F)F + NC(=O)Nc1cc(-c2cccc(F)c2)sc1C(=O)N[C@H]1CCCNC1 [AZD7762] (partner 0.2 µM)
Outline: as §1

[3] = compound: CCn1c(-c2nonc2N)nc2cnc(Oc3cccc(NC(=O)c4ccc(OCCN5CCOCC5)cc4)c3)cc21 + CS(=O)(=O)CCNCc1ccc(-c2ccc3ncnc(Nc4ccc(OCc5cccc(F)c5)c(Cl)c4)c3c2)o1 [Lapatinib] (partner 2 µM)
Outline: as §1

[4] = compound: CCC1=CN=CN=C1N2CCN(CC2)CC3=NC4=C(N3)C=C(C=C4)C(F)(F)F + CCNC(=O)c1noc(-c2cc(C(C)C)c(O)cc2O)c1-c1ccc(CN2CCOCC2)cc1 [Luminespib] (partner 0.01 µM)
Outline: as §1

Cell Line | relative viability ([1]; first compound 0.04 µM) | relative viability ([1]; first compound 0.1265 µM) | relative viability ([1]; first compound 0.4 µM) | relative viability ([1]; first compound 4 µM) | relative viability ([2]; first compound 0.04 µM) | relative viability ([2]; first compound 0.1265 µM) | relative viability ([2]; first compound 0.4 µM) | relative viability ([2]; first compound 1.265 µM) | relative viability ([2]; first compound 4 µM) | relative viability ([3]; first compound 0.04 µM) | relative viability ([3]; first compound 0.1265 µM) | relative viability ([3]; first compound 0.4 µM) | relative viability ([3]; first compound 1.265 µM) | relative viability ([3]; first compound 4 µM) | relative viability ([4]; first compound 0.04 µM) | relative viability ([4]; first compound 0.1265 µM) | relative viability ([4]; first compound 0.4 µM) | relative viability ([4]; first compound 1.265 µM) | relative viability ([4]; first compound 4 µM) | relative viability ([1]; first compound 1.265 µM)
HCC-366 | 0.622 | 0.493 | 0.579 | 1.15 | 0.33 | 0.256 | 0.219 | 0.226 | 0.302 | 1.25 | 1.01 | 0.251 | 0.0431 | 0.0373 | – | – | – | – | – | –
SW 1573 | 0.81 | 0.833 | 0.968 | 0.922 | – | – | – | – | – | 1.21 | 0.904 | 0.685 | 0.627 | 0.353 | 0.158 | 0.211 | 0.174 | 0.273 | 0.399 | 0.834
SW 900 | – | – | – | – | 0.552 | 0.571 | 0.48 | – | 0.702 | – | – | – | – | – | 0.165 | 0.194 | 0.158 | 0.177 | 0.195 | –
NCI-H441 | 0.742 | 0.627 | 0.789 | 1.04 | 1.29 | 1.15 | 1.03 | 1.15 | 1.21 | – | – | – | – | – | 0.387 | 0.345 | 0.315 | 0.358 | 0.396 | 0.859
NCI-H1648 | – | – | – | – | 0.666 | – | – | 0.655 | 0.683 | – | – | – | – | – | – | – | – | – | – | –
NCI-H2023 | 0.712 | 0.655 | 0.713 | 1.07 | – | – | – | – | – | 1.25 | 0.797 | 0.515 | 0.555 | 0.373 | 0.7 | 0.594 | 0.706 | 0.72 | 0.626 | 0.713
SK-MES-1 | 1.01 | 1.01 | 0.942 | 1.19 | – | – | – | – | – | 0.493 | 0.434 | 0.404 | 0.453 | 0.401 | 0.779 | 0.951 | 0.718 | 0.735 | 0.793 | 1.09
NCI-H1793 | – | – | – | – | 0.548 | 0.407 | 0.392 | 0.334 | 0.347 | 0.555 | 0.569 | 0.582 | 0.414 | 0.418 | 0.152 | 0.311 | 0.171 | – | 0.165 | –
IA-LM | 0.907 | 0.763 | 0.94 | 0.759 | – | – | – | – | – | 1.14 | 0.915 | 1.11 | 0.913 | 0.909 | – | – | – | – | – | 0.669
A549 | 0.734 | 0.801 | 0.816 | 0.827 | – | – | – | – | – | 1.25 | 0.916 | 0.884 | 0.118 | 0.107 | – | – | – | – | – | 0.829
LCLC-103H | 1.09 | 1.01 | 1.04 | 1.16 | 0.776 | 0.774 | 0.794 | 0.684 | 0.865 | – | – | – | – | – | 0.948 | 0.98 | 0.999 | 0.886 | 0.721 | 1
NCI-H520 | 0.73 | 0.784 | 0.837 | 1.12 | – | – | – | – | – | 1 | 0.897 | 0.632 | 0.385 | 0.312 | 0.243 | 0.256 | 0.264 | – | 0.199 | 0.796
NCI-H2228 | 0.474 | 0.586 | 0.417 | 0.524 | – | – | – | – | – | 1.79 | 0.81 | 0.954 | 0.756 | 0.727 | 0.131 | 0.132 | 0.131 | 0.144 | 0.175 | 0.428
